According to US20200024246A1, “POGOSTONE DERIVATIVES AND METHODS OF USING THE SAME” (Hamyard Associates LLC, priority 2018, published 2020):
Converted amounts (≈) assume the structure as drawn. “And” between values parts separate entries of the source, which are not always exact repeats. Equal values may be shown once. “Also recorded” adds a separate entry of the source. Read-outs that look alike come from different tables or passages of the source.

How the values were obtained:
[1] = system: Dandelion (Taraxacum officinale); assay: Soil drench herbicidal test, dandelion; assay type: in vivo; conditions: Dandelion; 2 weeks after soil drench - 40 mL of 0.5% solution; Rep 1 and 2
Method: Dandelion (Taraxacum officinale) seeds were obtained from the Department of Agronomy at Iowa State University. Individual seeds were sown for each pot (6″ wide×4.5″ deep) with approximately 800 mL of soil for each plan. Only plants that germinated were used for the study. Plants were treated 1-2 weeks post emergence. Plants were watered every 2-3 days as needed. Giant foxtail (Setaria faberi) seeds were obtained from the Department of Agronomy at Iowa State University. Three seeds were sown for each pot (6″ wide×4.5″ deep) with approximately 800 mL of soil for each plan. Only plants that germinated were used for the study. Plants were treated 1-2 weeks post emergence. Plants were watered every 2-3 days as needed.
Formulations of the various active ingredients were created using the disclosed pogostone derivatives and Triton-X 100 to aid in the solvation of the active ingredient. Formulations consisted of 0.5% active ingredient by weight. […] 40 mL of formulation ([…] active ingredient) was applied to each pot containing approximately 3-5 plants per pot at 2-3 weeks after emergence. Observations were performed 3 days and 2 weeks after soil drench to determine the effects of the treatments on the various types and stages of plants. […]

adult, female mosquitoes = assay: Topical application on adult female mosquitoes (24-h mortality, 1-h knockdown); assay type: in vivo, mosquito; conditions: for ED50: read-out: KD50 (ug/g mosquito); for LD50: read-out: LD50 (ug/g mosquito); for insecticidal properties compared with natural pogostone, natural pyrethrins or terpenoids: words, refers to Table 1
adult house flies [2] = assay: House fly feeding assay (choice assay, FIG. 5); assay type: in vivo; conditions: 15% w/w in fly food, total mortality at 5 days
Text: Formulas 13, 17, 24, 26, 10, 27, and 29 and control (acetone and boric acid) were incorporated into 2 g of house fly food (1:1 dry milk and sucrose) at rate of 15%. Specifically, approximately 20-30 adult house flies ( ) were introduced into aquaria with a French square filled with de-ionized water. Cotton dental wicks were used to draw water up and present it to flies at the top of the French square. Compounds were introduced at a concentration of (15% w/w food) into 1:1 mixtures of evaporated milk powder and sucrose. MUSCALURE™, a potent house fly attractant/pheromone used in various house fly bait products, was also added to this mixture of bait and food at a concentration of 0.5% w/w food. Two grams of food mixed with compound was provided to house flies in each assay. Another 2 g of just fly food (no compound) was provided at the other end of the assay chamber to serve as untreated source of food. This was done to assess the ability of flies to feed on the treated food source (palatability). If acetone was used as the carrier throughout the experiment, the food was carefully stirred repeatedly to ensure evaporation so that no more acetone was present in the food. Total mortality was assessed at 5 days after introducing house flies into individual mason jars with food treated with different compounds.

[3] = system: Pyrethroid-resistant strain of Aedes aegypti (Puerto Rican strain); assay: Toxicity to insecticide-resistant mosquitoes (FIG. 1); conditions: dose response curves FIG. 1
house flies [4] = assay: Topical application on house flies; conditions: House Fly Toxicity; topical
adult house flies [5] = assay: Topical application of pogostone derivatives with PBO or plant essential oil on house flies; assay type: in vivo, house fly; conditions: house flies, topical, derivative alone or in combination with PBO
Method: Combinations of select pogostone derivatives with select concentrations of PBO or plant essential oils was performed. […] Synergists were applied as a subsequent application directly after the application of pogostone derivatives. Concentrations of synergists (plant oils or PBO) were chosen that produced no mortality at 24 hours when applied alone.
To assess the ability of PBO to increase the toxicity of a wide variety of pogostone derivatives, PBO and the pogostone derivatives were applied in combination to the pronotum of house flies.
Finally, the potential of plant essential oils to synergize the effect of Formula 30 was assessed.

[6] = system: 3-4 instar Aedes aegypti larvae; assay: Mosquito larvicide bioassay; assay type: in vivo; conditions: for LC50: Aedes aegypti
Method: Mosquito larvicide bioassays were performed by introducing various concentrations of test compounds (pyrone derivatives and rotenone) into acetone at various concentrations. 200 uL of these solutions were added to individual cups containing 10, 3-4 instar Aedes aegypti larvae and 25 mL of DI water. 2 mg of Tetramin™ was provided to each cup as a food source. […] Ataxia was used as the indicator of larval mortality. At least 5 concentrations were used which caused between 10 and 90% mortality. LC50 values were calculated using a PROC PROBIT model in SAS 9.4.

adult female mosquitoes = assay: whole plant or invertebrate; conditions: for 1-hour Knockdown EC50 (μg/g mosquito) / LD50: topical; for LD50: 24 h, read-out: 24-hour Mortality LD50 (μg/g mosquito)
Method: The first group of DHAA-based derivatives that were tested included Formula A2, Formula B3, Formula C3, and Formula D3. A solution of 0.5% or 1.5% of each of these compounds was applied to the mosquitoes, as described above. […] Acetone was used as a control.

soybean aphids = assay: Soybean aphid leaf dip assay for DHAA-based derivatives; assay type: in vivo; conditions: 24 hours
Method: Isolated soybean leaves were dipped into a pyrone solution containing either 0.5% or 1.5% of select DHAA-based derivatives. The leaves were allowed to dry for 30 minutes, and then place in a dish. Ten soybean aphids were placed on each leaf. Mortality was assessed at 24 hours.

adult flies = assay: Contact toxicity on treated filter paper; assay type: in vivo; conditions: filter paper treated with 1 mL in acetone; 24 hours
Method: Filter papers were treated with 1 mL of the disclosed compounds in acetone at varying concentrations, and the filter papers were placed in a dish. Ten adult flies were added to each dish and a sugar pad was added to each dish to ensure that any mortality could be attributed to the compound instead of starvation. Mortality was assessed at 24 hours.

house flies [7] = assay: Knockdown and mortality of DHAA-based derivatives on house flies; assay type: in vivo, house fly
Text: Accordingly, further derivatives with structures similar to Formula C3 were synthesized and tested for knockdown potential and mortality in house flies and mosquitoes using an experimental design similar to the one described above. These compounds include Formula C5, Formula C6, Formula C7, Formula C8, Formula C9, and Formula C10.

corn seeds = assay: Seed treatment testing: survival/germination of treated corn seeds (FIG. 2B); assay type: in vivo; conditions: seeds coated with compound; 1 week after introduction of larvae
Method: (§1) Corn seeds used were a non-transgenic type strain of corn to prevent confounding results. Germination typically occurred between 2-4 days after moistening.
(§2) Seed coating was accomplished by placing 20 g of corn seeds or soybeans into a container with approximately 1 mL of a 1:5 Elmer's glue:water solution with a small amount of Triton-X100™ (present 100 μL/5 mL). For solid compounds, 0.25 g of compound was subsequently introduced into the container. This mixture of seeds, Elmer's Glue/water/Triton-X 100™ solution, and active compound was mixed thoroughly until seeds were coated with the active ingredient.
(§3) For each treatment, 0.25 g of liquid compound was dissolved in 5 mL of hexane. 0.25 g of Hi-Sil 233 silica gel was introduced into this mixture of hexane and active ingredient. The solvent was blown-off using a rotary evaporator, allowing for the compound to adsorb to the silica gel. This 0.5 g of silica gel:active ingredient was then used as the solid material used for coating the seeds. The seeds were then coated with the same method used for solid compound.
(§4) Three corn seeds coated in pogostone derivative treatments were germinated in small, 2-oz. […] Germination of seedlings was also recorded at the end of the assay by counting the total number of seeds that produced roots out of the 3 seeds in each container/replicate and recorded as total percentage germination. […]

[8] = system: Western corn rootworm larvae; assay: Seed treatment testing: rootworm survival (FIG. 2A); assay type: in vivo; conditions: seeds coated with compound; 1 week after introduction of larvae
Method: as §1, §2, §3, §4

[9] = Mosquito Knockdown Properties (1 hour), topical application
[10] = Mosquito Toxicity (24 hours), topical application to pronotum

O=C(O)COc1ccc(Cl)cc1Cl [2,4-D, 2,4-dichlorophenoxyacetic acid]
% mortality [1]: 100% and 80%

Cc1cc(O)c(C(=O)/C=C/C(C)C)c(=O)o1 [Formula 10]
ED50 (adult, female mosquitoes; [9]): > 1500 mg/kg
LD50 (adult, female mosquitoes; [10]): > 1500 mg/kg
mortality compared with boric acid (adult house flies [2]): performed better than boric acid

CCCC(=O)c1c(O)c2ccccc2oc1=O [Formula 14]
insecticidal capacity compared with natural pyrethrins [3]: outperformed natural pyrethrins
LD50 (ug/g fly) (house flies [4]): >6,000 ug/g fly
ED50 (adult, female mosquitoes; topical, 1 h): > 1500 mg/kg
LD50 (adult, female mosquitoes; topical, 24 h): 139 mg/kg
insecticidal properties compared with natural pogostone, natural pyrethrins or terpenoids (adult, female mosquitoes): possessed better insecticidal properties than natural pogostone
LD50 (μg/g) (adult house flies [5]): >6,000 μg/g
LC50 ([6]; larval mortality at 24 hours, in 25 mL DI water, read-out: LC50): 0.9 µg/mL
larvicidal properties compared with natural pogostone or rotenone ([6]; words): possessed better larvicidal properties than natural pogostone; also recorded: possessed better larvicidal properties than rotenone; also recorded: performed as well as the rotenone
1-hour Knockdown EC50 (μg/g mosquito) (adult female mosquitoes): >1500 μg/g mosquito
LD50 (adult female mosquitoes): 139 mg/kg

O=C(CCc1ccccc1)c1c(O)c2ccccc2oc1=O [Formula 24]
ED50 (adult, female mosquitoes; topical, 1 h): > 1500 mg/kg
LD50 (adult, female mosquitoes; topical, 24 h): > 1500 mg/kg
mortality compared with boric acid (adult house flies [2]): performed similarly to boric acid

CCCCCCCCCCCC(=O)c1c(O)c2ccccc2oc1=O [Formula 26]
ED50 (adult, female mosquitoes; topical, 1 h): > 1500 mg/kg
LD50 (adult, female mosquitoes; topical, 24 h): > 1500 mg/kg
mortality compared with boric acid (adult house flies [2]): performed similarly to boric acid

O=C(c1c(O)c2ccccc2oc1=O)C1CC1 [Formula 29]
LD50 (ug/g fly) (house flies [4]): 1761 ug/g fly
ED50 (adult, female mosquitoes; [9]): 613 mg/kg
LD50 (adult, female mosquitoes; [10]): 47.7 mg/kg
insecticidal properties compared with natural pogostone, natural pyrethrins or terpenoids (adult, female mosquitoes): possessed better insecticidal properties than natural pogostone
LD50 (adult house flies [5]): 1761 µg/g
mortality compared with boric acid (adult house flies [2]): performed better than boric acid

Cc1cc(O)c(C(=O)CC(O)C(C)C)c(=O)o1 (stereo not shown) [Formula C10]
soybean aphids dead (soybean aphids; leaf dipped in 0.5% solution): Roughly 67%
soybean aphids dead (soybean aphids; leaf dipped in 1.5% solution): Roughly 90%
percent mortality, 0.10% Concentration (adult flies): 15%
percent mortality, 0.25% Concentration (adult flies): 0%
percent mortality, 0.50% Concentration (adult flies): 45%
House Fly Knockdown at 0.5% concentration (house flies [7]; 0.5% concentration): 52.5%
House Fly Mortality at 0.5% concentration (house flies [7]; 0.5% concentration): 23%
House Fly Knockdown at 1.5% concentration (house flies [7]; 1.5% concentration): 64%
House Fly Mortality at 1.5% concentration (house flies [7]; 1.5% concentration): 24%
Mosquito Knockdown at 0.5% concentration (adult female mosquitoes; 0.5% concentration): 100%
Mosquito Mortality at 0.5% concentration (adult female mosquitoes; 0.5% concentration): 100%
Mosquito Knockdown at 1.5% concentration (adult female mosquitoes; 1.5% concentration): 100%
Mosquito Mortality at 1.5% concentration (adult female mosquitoes; 1.5% concentration): 100%
1-hour Knockdown EC50 (μg/g mosquito) (adult female mosquitoes): 49 μg/g mosquito
LD50 (adult female mosquitoes): 29 mg/kg
ranking in knockdown and mortality screenings (adult female mosquitoes; words): performed the best in the initial knockdown and mortality screenings

Cc1cc(O)c(C(=O)CCC(C)C)c(=O)o1 [Pogostone, 3-(4-Methylpentanoyl)-4-hydroxy-2H]
phytotoxicity to treated corn seeds (corn seeds): Significant phytotoxicity
percent mortality, 0.10% Concentration (adult flies): 95%
percent mortality, 0.25% Concentration (adult flies): 100%
percent mortality, 0.50% Concentration (adult flies): 100%
ED50 (adult, female mosquitoes; [9]): 18.4 mg/kg
LD50 (adult, female mosquitoes; [10]): 388 mg/kg
LC50 ([6]; 24 h): 18.3 µg/mL (≈ 81.6 µM)
western corn rootworm mortality [8]: significant western corn rootworm mortality
1-hour Knockdown EC50 (μg/g mosquito) (adult female mosquitoes): 95.2 μg/g mosquito
LD50 (adult female mosquitoes): 262 mg/kg
